The values that follow are results of earlier work, collected in patent US20050004224A1, “Treatment of Alzheimer's disease with the R(-) isomer of a 2-arylpropionic acid non-steroidal anti-inflammatory drug alone or in combination with a cyclooxygenase-2 selective inhibitor” (Pharmacia Corporation, priority 2003, published 2005).

Each structure is given as a SMILES string.

Series [1] concerns patients with osteoarthritis. The note with it: Singer et al. 2000.
The next series concerns murine cells. Conditions: Ogawa et al. 2000.
For series [2] the following is noted: Lambat et al. 2000.
The subject of another series is A-beta 1-42 peptide. Conditions: Weggen et al. 2001.
For another series, the system named is neuronal cells. Conditions: Blasko et al. 2001.
The conditions of series [3]: Lambat et al. 2000. The source holds these as a separate data set.
For the next series, the system named is AD models. The note with it: chronic ibuprofen; some AD models; Lim et al. 2001.
The conditions of series [4]: Asanuma et al. 2001.

On to `CC(C)Cc1ccc([C@H](C)C(=O)O)cc1` (single isomer, unassigned) [S(+) isomer of ibuprofen], for which the “effective NSAID for patients with osteoarthritis” value in series [1] was “effective”.
In the case of `CC(=O)Oc1ccccc1C(=O)O` [aspirin], the “beta-amyloid protein and interferon-gamma-induced NO production” value with murine cells was “did not produce such an effect”.
Regarding `CC(C)Cc1ccc(C(C)C(=O)O)cc1` (stereo not drawn) [ibuprofen, α-methyl-4-[isobutyl]phenylacetic acid], the “quinolinic acid-induced lipid peroxidation” value in series [2] is “reducing”. Moreover, the “beta-amyloid protein and interferon-gamma-induced NO production” value in the series on murine cells is reported as “reduced”. In addition, the “production of the amyloidogenic A-beta 1-42 peptide” value in the series with A-beta 1-42 peptide was “reduced”. Further, in the series with neuronal cells, the “cytokine-induced amyloid Beta production” value was “reduced”. Besides, in series [3], the cyanide-induced speroxide production result is listed as “reducing”. Moreover, the “inflammation and plaque-related pathology” value in the series on AD models is on record as “suppress”.
For `COc1ccc2c(c1)c(CC(=O)O)c(C)n2C(=O)c1ccc(Cl)cc1` [indomethacin], the “beta-amyloid protein and interferon-gamma-induced NO production” value in the series with murine cells is “reduced”. Also, the “production of the amyloidogenic A-beta 1-42 peptide” value in the series with A-beta 1-42 peptide is on record as “reduced”.
`CC(C(=O)O)c1cccc(C(=O)c2ccccc2)c1` (stereo not drawn) [ketoprofen]: the nitric oxide-scavenging ability result in series [4] is “have such activity”.
As for `CSc1ccc(/C=C2/C(C)=C(CC(=O)O)c3cc(F)ccc32)cc1` [sulindac sulfide], in the series with A-beta 1-42 peptide, the “production of the amyloidogenic A-beta 1-42 peptide” value was “reduced”.
